Measurements taken from PubChem BioAssay AID328 (DTP/NCI, 2004).
Several values for one entry are separate records, joined by “and”; a condition that tells them apart may be missing. Equal values may be shown once. Toxic doses and inconclusive results are not listed. Rule for the calls: active = survival T/C of 150% or more; inactive = T/C below 125% in these data.

Test system: BDF1 mice, P388 leukemia ip, median survival T/C
Assay: NCI In Vivo Anticancer Drug Screen. Data for tumor model P388 Leukemia (intraperitoneal) in B6D2F1 (BDF1) mice
Conditions: endpoint: median survival time, higher = longer survival
Summary of the method: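 Vehicle-dosed animals serve as the reference; survival of compound-dosed, tumour-implanted mice is divided by it.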

[1] = dose: 50.0 mg/kg/injection, schedule: Q04DX003 (ip), vehicle: Klucel (hydroxypropylcellulose) (HPC)
[2] = dose: 100.0 mg/kg/injection, schedule: Q01DX009 (ip), vehicle: Klucel (hydroxypropylcellulose) (HPC)
[3] = dose: 100.0 mg/kg/injection, schedule: Q04DX003 (ip), vehicle: Klucel (hydroxypropylcellulose) (HPC)
[4] = dose: 200.0 mg/kg/injection, schedule: Q01DX009 (ip), vehicle: Klucel (hydroxypropylcellulose) (HPC)
[5] = dose: 200.0 mg/kg/injection, schedule: Q04DX003 (ip), vehicle: Klucel (hydroxypropylcellulose) (HPC)
[6] = dose: 50.0 mg/kg/injection, schedule: Q01DX009 (ip), vehicle: saline with Tween-80
[7] = dose: 100.0 mg/kg/injection, schedule: Q01DX009 (ip), vehicle: saline with Tween-80
[8] = dose: 5.0 mg/kg/injection, schedule: Q01DX010 (ip), vehicle: steriod suspending solution
[9] = dose: 100.0 mg/kg/injection, schedule: Q04DX003 (ip), vehicle: saline with Tween-80
[10] = dose: 200.0 mg/kg/injection, schedule: Q01DX009 (ip), vehicle: saline with Tween-80
[11] = dose: 200.0 mg/kg/injection, schedule: Q04DX003 (ip), vehicle: saline with Tween-80
[12] = dose: 400.0 mg/kg/injection, schedule: Q04DX003 (ip), vehicle: saline with Tween-80
[13] = dose: 400.0 mg/kg/injection, schedule: Q01DX009 (ip), vehicle: saline with Tween-80
[14] = dose: 50.0 mg/kg/injection, schedule: Q04DX003 (ip), vehicle: saline with Tween-80
[15] = dose: 0.78 mg/kg/injection, schedule: Q01DX009 (ip), vehicle: Klucel (hydroxypropylcellulose) (HPC)
[16] = dose: 1.56 mg/kg/injection, schedule: Q01DX009 (ip), vehicle: Klucel (hydroxypropylcellulose) (HPC)
[17] = dose: 100.0 mg/kg/injection, schedule: Q04DX003 (ip), vehicle: saline
[18] = dose: 200.0 mg/kg/injection, schedule: Q04DX003 (ip), vehicle: saline

Measured: T/C

CC1(C)C=C(C(N)=O)C(C)(C)N1O
inactive: dose: 100.0 mg/kg/injection, schedule: Q01DX001 (ip), vehicle: Klucel (hydroxypropylcellulose) (HPC) 100 % of control | dose: 200.0 mg/kg/injection, schedule: Q01DX001 (ip), vehicle: Klucel (hydroxypropylcellulose) (HPC) 88 % of control | dose: 400.0 mg/kg/injection, schedule: Q01DX001 (ip), vehicle: Klucel (hydroxypropylcellulose) (HPC) 96 % of control

O/N=C\CCC/C=N/O
inactive: [1] 100 % of control | [2] 91 % of control | [3] 100 % of control | [4] 95 % of control | [5] 100 % of control | dose: 400.0 mg/kg/injection, schedule: Q01DX009 (ip), vehicle: Klucel (hydroxypropylcellulose) (HPC) 95 % of control

O=c1nc(Oc2ccccc2)nc2cnccn12
inactive: [6] 88 % of control | [7] 88 % of control

CC1=C(CO)C(=O)O[C@@H]([C@@H](C)[C@H]2CC[C@H]3[C@@H]4C[C@H]5O[C@]56[C@@H](O)C=CC(=O)[C@]6(C)[C@H]4CC[C@]23C)C1
inactive: [8] 95 % of control | dose: 10.0 mg/kg/injection, schedule: Q01DX010 (ip), vehicle: steriod suspending solution 100 % of control | dose: 20.0 mg/kg/injection, schedule: Q01DX010 (ip), vehicle: steriod suspending solution 90 % of control | dose: 40.0 mg/kg/injection, schedule: Q01DX010 (ip), vehicle: steriod suspending solution 104 % of control

CC(=O)c1ccccc1[N+](=O)[O-]
inactive: [6] 95 % of control | [7] 100 % of control | [9] 95 % of control | [10] 86 % of control | [11] 90 % of control | [12] 100 % of control

CC(C)=CCC/C(C)=C/COC(=O)Cc1ccccc1
inactive: [7] 104 % of control | [9] 100 % of control | [10] 109 % of control | [11] 105 % of control | [13] 118 % of control | [12] 122 % of control

OC12C3CCCC1CCCC2CCC3 (configuration not stated)
inactive: [3] 100 % of control and 108 % of control | dose: 100.0 mg/kg/injection, schedule: Q04DX003 (ip), vehicle: saline sonified 108 % of control | [5] 91 % of control and 100 % of control | dose: 200.0 mg/kg/injection, schedule: Q04DX003 (ip), vehicle: saline sonified 90 % of control and 108 % of control | dose: 400.0 mg/kg/injection, schedule: Q04DX003 (ip), vehicle: Klucel (hydroxypropylcellulose) (HPC) 100 % of control | dose: 400.0 mg/kg/injection, schedule: Q04DX003 (ip), vehicle: saline sonified 109 % of control and 108 % of control

COc1ccccc1NC(=O)CSC(N)=O
inactive: [2] 110 % of control | [4] 120 % of control | dose: 264.0 mg/kg/injection, schedule: Q01DX009 (ip), vehicle: Klucel (hydroxypropylcellulose) (HPC) 113 % of control and 120 % of control

CCOC(=O)C(Br)C(Br)c1ccccc1 (configuration not stated)
inactive: dose: 50.0 mg/kg/injection, schedule: Q01DX001 (ip), vehicle: saline 100 % of control | [14] 91 % of control | dose: 100.0 mg/kg/injection, schedule: Q01DX001 (ip), vehicle: saline 90 % of control | [9] 108 % of control | dose: 200.0 mg/kg/injection, schedule: Q01DX001 (ip), vehicle: saline 118 % of control | [11] 112 % of control

COc1ccc(-c2c(C)c(C(=O)O)nc(-c3ccc4c(O)c(OC)c5c(c4n3)=NC(C)(C)N=5)c2N)c(O)c1OC
inactive: dose: 1.0 mg/kg/injection, schedule: Q01DX010 (ip), vehicle: other 90 % of control | dose: 2.0 mg/kg/injection, schedule: Q01DX010 (ip), vehicle: other 118 % of control | dose: 4.0 mg/kg/injection, schedule: Q01DX010 (ip), vehicle: other 118 % of control | dose: 5.0 mg/kg/injection, schedule: Q01DX010 (ip), vehicle: water 100 % of control | dose: 10.0 mg/kg/injection, schedule: Q01DX010 (ip), vehicle: water 95 % of control

Cc1ccc([I+]c2ccc(C)cc2C)c(C)c1
inactive: dose: 0.19 mg/kg/injection, schedule: Q01DX009 (ip), vehicle: Klucel (hydroxypropylcellulose) (HPC) 90 % of control | dose: 0.39 mg/kg/injection, schedule: Q01DX009 (ip), vehicle: Klucel (hydroxypropylcellulose) (HPC) 90 % of control | [15] 100 % of control | dose: 1.17 mg/kg/injection, schedule: Q04DX003 (ip), vehicle: Klucel (hydroxypropylcellulose) (HPC) 104 % of control | dose: 1.5 mg/kg/injection, schedule: Q01DX009 (ip), vehicle: Klucel (hydroxypropylcellulose) (HPC) 90 % of control | [16] 87 % of control | dose: 2.34 mg/kg/injection, schedule: Q04DX003 (ip), vehicle: Klucel (hydroxypropylcellulose) (HPC) 108 % of control | dose: 3.0 mg/kg/injection, schedule: Q01DX009 (ip), vehicle: Klucel (hydroxypropylcellulose) (HPC) 100 % of control and 103 % of control | dose: 4.68 mg/kg/injection, schedule: Q04DX003 (ip), vehicle: Klucel (hydroxypropylcellulose) (HPC) 113 % of control | dose: 6.0 mg/kg/injection, schedule: Q01DX009 (ip), vehicle: Klucel (hydroxypropylcellulose) (HPC) 103 % of control | dose: 6.6 mg/kg/injection, schedule: Q04DX003 (ip), vehicle: Klucel (hydroxypropylcellulose) (HPC) 100 % of control | dose: 10.0 mg/kg/injection, schedule: Q04DX003 (ip), vehicle: Klucel (hydroxypropylcellulose) (HPC) 113 % of control | dose: 12.0 mg/kg/injection, schedule: Q04DX003 (ip), vehicle: Klucel (hydroxypropylcellulose) (HPC) 100 % of control | dose: 12.5 mg/kg/injection, schedule: Q04DX003 (ip), vehicle: Klucel (hydroxypropylcellulose) (HPC) 103 % of control | dose: 25.0 mg/kg/injection, schedule: Q04DX003 (ip), vehicle: Klucel (hydroxypropylcellulose) (HPC) 100 % of control | [1] 91 % of control

CCCCCC[C@H]([C@H](C)O)n1cnc2c(N)ncnc21
inactive: dose: 15.0 mg/kg/injection, schedule: Q01DX009 (ip), vehicle: saline 105 % of control | dose: 22.0 mg/kg/injection, schedule: Q01DX009 (ip), vehicle: saline 105 % of control | dose: 33.0 mg/kg/injection, schedule: Q01DX009 (ip), vehicle: saline 104 % of control | dose: 50.0 mg/kg/injection, schedule: Q01DX009 (ip), vehicle: saline 101 % of control

CCCCCC(CN(C)C)C(=O)/C=C\c1ccc(Cl)cc1Cl (configuration not stated)
inactive: dose: 8.0 mg/kg/injection, schedule: Q01DX009 (ip), vehicle: saline 122 % of control | dose: 12.0 mg/kg/injection, schedule: Q01DX009 (ip), vehicle: saline 122 % of control | dose: 18.0 mg/kg/injection, schedule: Q01DX009 (ip), vehicle: saline 122 % of control

CO[C@H]1C[C@H](O[C@H]2CC[C@]3(C=O)[C@H]4CC[C@]5(C)[C@@H](C6=CC(=O)OC6)CC[C@]5(O)[C@@H]4CC[C@]3(O)C2)O[C@H](C)[C@H]1O
inactive: dose: 0.62 mg/kg/injection, schedule: Q01DX010 (ip), vehicle: steriod suspending solution 95 % of control | dose: 1.25 mg/kg/injection, schedule: Q01DX010 (ip), vehicle: steriod suspending solution 90 % of control | dose: 2.5 mg/kg/injection, schedule: Q01DX010 (ip), vehicle: steriod suspending solution 95 % of control | [8] 90 % of control

CCOP(=O)(OCC)ON1C(=O)c2cccc3cccc(c23)C1=O
inactive: [15] 97 % of control | [16] 99 % of control

Cc1cccc(CSc2nc(N)nc3c2ncn3C2CC(O)C(CO)O2)n1 (configuration not stated)
inactive: [17] 92 % of control | [18] 98 % of control | dose: 400.0 mg/kg/injection, schedule: Q04DX003 (ip), vehicle: saline 104 % of control

COCOS(C)(=O)=O
inactive: [17] 95 % of control | [18] 120 % of control

O=C1OC(c2ccccc2)=C/C1=C/c1ccccc1O
inactive: dose: 25.0 mg/kg/injection, schedule: Q01DX009 (ip), vehicle: saline with Tween-80 109 % of control | [6] 91 % of control | [14] 104 % of control | [7] 97 % of control | [9] 109 % of control | [10] 97 % of control and 118 % of control | [11] 116 % of control | dose: 300.0 mg/kg/injection, schedule: Q01DX009 (ip), vehicle: saline with Tween-80 108 % of control | [13] 113 % of control and 124 % of control | [12] 114 % of control | dose: 500.0 mg/kg/injection, schedule: Q01DX009 (ip), vehicle: saline with Tween-80 122 % of control
